Legend:
Assay in all cases: relative viability (nuclei count vs DMSO), 5 days (fraction); higher = more cells survive
[1] = compound: C#Cc1cccc(Nc2ncnc3cc(OC)c(OCCCCCCC(=O)NO)cc23)c1 [CUDC-101] + CC(=O)c1c(C)c2cnc(Nc3ccc(N4CCNCC4)cn3)nc2n(C2CCCC2)c1=O [Palbociclib] (partner 0.5 µM)
How it was run: (§1)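 Cells from lung cancer lines were seeded into 1536-well plates and, one day later, dosed by pin tool. Treatments were either a single drug or a fixed dose of an anchor drug with five library-drug doses (not always all listed) in √10 steps. After 5 days, nuclei were stained in a one-step fixation (final 0.05% Triton X-100, 1% formaldehyde, 1 ug/ml Hoechst) and counted on 4× images, and relative viability is the treated-to-vehicle nuclei ratio, as the median of duplicate plates.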

[2] = compound: C#Cc1cccc(Nc2ncnc3cc(OC)c(OCCCCCCC(=O)NO)cc23)c1 [CUDC-101] + N=C(N)NC(=N)NCCc1ccccc1 [Phenformin] (partner 250 µM)
How it was run: as §1

[3] = compound: COc1cc(N2CCC(N3CCN(C)CC3)CC2)ccc1Nc1ncc(Cl)c(Nc2ccccc2S(=O)(=O)C(C)C)n1 [NVP-TAE684] + Cc1cc(Nc2cc(N3CCN(C)CC3)nc(Sc3ccc(NC(=O)C4CC4)cc3)n2)n[nH]1 [Tozasertib] (partner 0.1 µM)
How it was run: as §1

[4] = compound: COc1cc(N2CCC(N3CCN(C)CC3)CC2)ccc1Nc1ncc(Cl)c(Nc2ccccc2S(=O)(=O)C(C)C)n1 [NVP-TAE684] + O=C(c1cc(Cc2n[nH]c(=O)c3ccccc23)ccc1F)N1CCN(C(=O)C2CC2)CC1 [Olaparib] (partner 8 µM)
How it was run: as §1

Cell Line	relative viability ([1]; first compound 0.01 µM)	relative viability ([1]; first compound 0.03162 µM)	relative viability ([1]; first compound 0.1 µM)	relative viability ([1]; first compound 0.3162 µM)	relative viability ([1]; first compound 1 µM)	relative viability ([2]; first compound 0.01 µM)	relative viability ([2]; first compound 0.03162 µM)	relative viability ([2]; first compound 0.1 µM)	relative viability ([2]; first compound 0.3162 µM)	relative viability ([2]; first compound 1 µM)	relative viability ([3]; first compound 0.2 µM)	relative viability ([3]; first compound 0.6325 µM)	relative viability ([3]; first compound 2 µM)	relative viability ([4]; first compound 0.2 µM)	relative viability ([4]; first compound 0.6325 µM)	relative viability ([4]; first compound 2 µM)
NCI-H650	0.402	0.365	0.302	0.374	0.29	0.453	0.475	0.465	0.385	0.38	0.669	0.69	0.498	0.423	0.376	0.289
NCI-H661	0.382	0.381	0.388	0.416	0.287	0.284	0.291	0.291	0.311	0.246	0.373	0.341	0.352	0.771	0.788	0.625
NCI-H727	0.642	0.61	0.563	0.714	0.57	0.591	0.476	0.297	0.604	0.362	0.495	0.532	0.32	0.612	0.601	0.679
NCI-H838	0.213	0.221	0.233	0.26	0.214	0.64	0.564	0.696	0.712	0.404	0.311	0.233	0.226	0.737	0.611	0.252
NCI-H1355	0.392	0.429	0.399	0.376	0.37	0.453	0.431	0.453	0.47	0.387	0.521	0.471	0.301	0.657	0.713	0.499
NCI-H1395	0.599	0.632	0.595	0.725	0.578	0.495	0.435	0.462	0.466	0.456	0.819	0.699	0.626	0.463	0.422	0.384
NCI-H1437	0.287	0.327	0.302	0.342	0.302	0.313	0.341	0.275	0.275	0.392	0.433	0.396	0.311	0.65	0.663	0.523
NCI-H1650	0.37	0.23	0.294	0.308	0.19	0.405	0.313	0.36	0.452	0.188	0.317	0.385	0.165	0.757	0.758	0.825
NCI-H1651	0.548	0.543	0.497	0.529	0.493	0.34	0.352	0.371	0.415	0.432	0.931	0.695	0.576	0.181	0.186	0.173
NCI-H1666	0.64	0.661	0.661	0.599	0.664	0.601	0.535	0.574	0.575	0.552	0.569	0.63	0.488	0.734	0.772	0.736
NCI-H1734	0.357	0.374	0.342	0.382	0.274	0.362	0.419	0.425	0.448	0.29	0.283	0.261	0.196	0.668	0.665	0.461
NCI-H1755	0.431	0.472	0.507	0.469	0.435	0.587	0.629	0.319	0.645	0.534	0.601	0.585	0.473	0.926	0.965	
NCI-H1793	0.275	0.272	0.36	0.253	0.247	0.372	0.239	0.34	0.442	0.291	0.346	0.323	0.25	1.01	0.841	0.508
NCI-H1915	0.547	0.493	0.524	0.472	0.339	0.395	0.361	0.364	0.349	0.269	0.487	0.415	0.492	0.295	0.281	0.228
NCI-H1944	0.33	0.298	0.322	0.311	0.216	0.218	0.192	0.181	0.193	0.151	0.271	0.248	0.225	0.373	0.421	0.419
NCI-H1975	0.535	0.623	0.601	0.673	0.536	0.415	0.401	0.416	0.425	0.378	1.01	0.732	0.206	0.862	0.748	0.288
NCI-H1993	0.837	0.656	0.592	0.618	0.482	0.491	0.523	0.569	0.535	0.603	0.626	0.543	0.476	1.11	1.09	0.749

From the supplement of paper PMC10307832
